Source: the NIST ThermoML archive (doi:10.1016/j.jct.2004.07.024)
Numbers after ± are expanded uncertainties.

Test: xn = mol fraction of the nth substance listed
Conditions: 101.33 kPa, Liquid

C=Cc1ccccc1 [styrene] + C[S+](C)[O-]
Conditions	mass density [kg/m3]
293.15 K, x1 = 0.062	1081.91 ± 0.31
293.15 K, x1 = 0.1289	1064.06 ± 0.31
293.15 K, x1 = 0.2169	1042.53 ± 0.3
293.15 K, x1 = 0.2956	1024.85 ± 0.31
293.15 K, x1 = 0.3596	1011.37 ± 0.31
293.15 K, x1 = 0.4103	1001.24 ± 0.32
293.15 K, x1 = 0.4596	991.74 ± 0.34
293.15 K, x1 = 0.5023	983.85 ± 0.36
293.15 K, x1 = 0.5689	972.01 ± 0.38
293.15 K, x1 = 0.626	962.31 ± 0.4
293.15 K, x1 = 0.7025	949.86 ± 0.43
293.15 K, x1 = 0.7865	936.88 ± 0.46
293.15 K, x1 = 0.8595	926.02 ± 0.48
293.15 K, x1 = 0.9312	915.7 ± 0.51
303.15 K, x1 = 0.0852	1066.12 ± 0.3
303.15 K, x1 = 0.1495	1049.28 ± 0.29
303.15 K, x1 = 0.2015	1036.5 ± 0.29
303.15 K, x1 = 0.2695	1020.82 ± 0.3
303.15 K, x1 = 0.3351	1006.61 ± 0.3
303.15 K, x1 = 0.4055	992.33 ± 0.32
303.15 K, x1 = 0.4824	977.63 ± 0.35
303.15 K, x1 = 0.5588	963.89 ± 0.38
303.15 K, x1 = 0.6196	953.53 ± 0.4
303.15 K, x1 = 0.6726	944.85 ± 0.42
303.15 K, x1 = 0.7369	934.68 ± 0.45
303.15 K, x1 = 0.8069	924.05 ± 0.47
303.15 K, x1 = 0.8756	913.99 ± 0.49
303.15 K, x1 = 0.9458	904.01 ± 0.52
313.15 K, x1 = 0.0665	1060.82 ± 0.29
313.15 K, x1 = 0.1856	1029.88 ± 0.28
313.15 K, x1 = 0.2581	1012.95 ± 0.28
313.15 K, x1 = 0.3296	997.38 ± 0.3
313.15 K, x1 = 0.3895	985.13 ± 0.32
313.15 K, x1 = 0.4469	973.98 ± 0.34
313.15 K, x1 = 0.5132	961.75 ± 0.37
313.15 K, x1 = 0.5958	947.37 ± 0.4
313.15 K, x1 = 0.6553	937.53 ± 0.42
313.15 K, x1 = 0.7125	928.47 ± 0.44
313.15 K, x1 = 0.7665	920.19 ± 0.46
313.15 K, x1 = 0.8269	911.23 ± 0.48
313.15 K, x1 = 0.8801	903.57 ± 0.5
313.15 K, x1 = 0.9485	893.98 ± 0.52
323.15 K, x1 = 0.0653	1050.77 ± 0.27
323.15 K, x1 = 0.1856	1019.46 ± 0.27
323.15 K, x1 = 0.2513	1004.06 ± 0.27
323.15 K, x1 = 0.3257	987.81 ± 0.3
323.15 K, x1 = 0.3969	973.33 ± 0.33
323.15 K, x1 = 0.4582	961.55 ± 0.35
323.15 K, x1 = 0.5296	948.61 ± 0.38
323.15 K, x1 = 0.5701	941.56 ± 0.4
323.15 K, x1 = 0.6352	930.72 ± 0.42
323.15 K, x1 = 0.6925	921.57 ± 0.44
323.15 K, x1 = 0.7468	913.21 ± 0.46
323.15 K, x1 = 0.8169	902.83 ± 0.48
323.15 K, x1 = 0.8825	893.48 ± 0.51
323.15 K, x1 = 0.9555	883.37 ± 0.53
333.15 K, x1 = 0.0626	1041.08 ± 0.26
333.15 K, x1 = 0.1745	1011.71 ± 0.26
333.15 K, x1 = 0.2469	994.63 ± 0.27
333.15 K, x1 = 0.2963	983.69 ± 0.29
333.15 K, x1 = 0.3458	973.27 ± 0.31
333.15 K, x1 = 0.3899	964.37 ± 0.33
333.15 K, x1 = 0.4525	952.34 ± 0.36
333.15 K, x1 = 0.5252	939.14 ± 0.38
333.15 K, x1 = 0.6053	925.5 ± 0.41
333.15 K, x1 = 0.6852	912.68 ± 0.44
333.15 K, x1 = 0.7562	901.86 ± 0.47
333.15 K, x1 = 0.8362	890.23 ± 0.5
333.15 K, x1 = 0.8826	883.72 ± 0.51
333.15 K, x1 = 0.9332	876.75 ± 0.53
343.15 K, x1 = 0.0866	1023.99 ± 0.25
343.15 K, x1 = 0.1762	1000.88 ± 0.25
343.15 K, x1 = 0.2459	984.45 ± 0.28
343.15 K, x1 = 0.2856	975.61 ± 0.29
343.15 K, x1 = 0.3595	960.11 ± 0.33
343.15 K, x1 = 0.4041	951.25 ± 0.34
343.15 K, x1 = 0.4896	935.26 ± 0.38
343.15 K, x1 = 0.5695	921.33 ± 0.41
343.15 K, x1 = 0.6254	912.1 ± 0.43
343.15 K, x1 = 0.6925	901.53 ± 0.45
343.15 K, x1 = 0.7569	891.83 ± 0.47
343.15 K, x1 = 0.8042	884.96 ± 0.49
343.15 K, x1 = 0.8685	875.91 ± 0.51
343.15 K, x1 = 0.9344	866.93 ± 0.53
353.15 K, x1 = 0.0659	1019.29 ± 0.24
353.15 K, x1 = 0.1289	1002.33 ± 0.24
353.15 K, x1 = 0.1865	987.92 ± 0.26
353.15 K, x1 = 0.2415	975.04 ± 0.28
353.15 K, x1 = 0.3063	960.8 ± 0.31
353.15 K, x1 = 0.3895	943.8 ± 0.35
353.15 K, x1 = 0.4589	930.59 ± 0.37
353.15 K, x1 = 0.5362	916.84 ± 0.4
353.15 K, x1 = 0.6089	904.68 ± 0.43
353.15 K, x1 = 0.6812	893.25 ± 0.46
353.15 K, x1 = 0.7462	883.47 ± 0.48
353.15 K, x1 = 0.8126	873.91 ± 0.5
353.15 K, x1 = 0.8865	863.68 ± 0.52
353.15 K, x1 = 0.9522	854.91 ± 0.55
